Activity calls are given as the source filed them. No cut-off for these calls is given here. Non-standard residues stand in square brackets, D forms with d. Residues, ends and D or L forms follow the SMILES beside them. NMeR = CN[C@@H](CCCNC(=N)N)C(=O)O; NMeF = CN[C@@H](Cc1ccccc1)C(=O)O; NMeT = CN[C@H](C(=O)O)[C@@H](C)O; NMeN = CN[C@@H](CC(N)=O)C(=O)O; NMeL = CN[C@@H](CC(C)C)C(=O)O; NMeS = CN[C@@H](CO)C(=O)O
Columns and labels:
[1] = system: Streptococcus mutans; assay: Agonist activity at Streptococcus mutans SAB249 ComD receptor assessed as increase in cipB expression at 10 uM after 1 hr by beta-galactosidase reporter gene assay relative to control
[2] = system: Streptococcus mutans; assay: Antagonist activity at Streptococcus mutans SAB249 ComD receptor assessed as inhibition of 18-CSP-induced cipB expression at 10 uM after 1 hr by beta-galactosidase reporter gene assay
[3] = system: Streptococcus mutans; assay: Activation of comD quorum sensing system in Streptococcus mutans SMCC3 harboring comC deletion mutant assessed as reduction in inhibition zone of Streptococcus anginosus ATCC 33397 at 5 to 100 nM preincubated for 4 hrs followed by Streptococcus anginosus ATCC 33397 addition and measured after 24 hrs
[4] = Agonist activity at Streptococcus mutans SAB249 ComD receptor assessed as increase in cipB expression after 1 hr by beta-galactosidase reporter gene assay
[5] = system: Streptococcus mutans; assay: (§1) Activation of comD quorum sensing system in Streptococcus mutans SMCC3 harboring comC deletion mutant assessed as reduction in inhibition zone of Streptococcus anginosus ATCC 33397 at 0.25 nM preincubated for 4 hrs followed by Streptococcus anginosus ATCC 33397 addition and measured after 24 hrs
[6] = system: Streptococcus mutans; assay: as §1, with “0.25 to 1” for “0.25”

In the case of `CC(C)C[C@H](NC(=O)[C@H](CCCNC(=N)N)NC(=O)[C@H](Cc1ccccc1)NC(=O)[C@H](Cc1ccccc1)NC(=O)[C@@H](NC(=O)[C@H](CO)NC(=O)[C@H](CC(C)C)NC(=O)[C@@H](N)CO)[C@@H](C)O)C(=O)N[C@@H](Cc1ccccc1)C(=O)N[C@@H](CC(N)=O)C(=O)N[C@@H](CCCNC(=N)N)C(=O)N[C@@H](CO)C(=O)N[C@@H](Cc1ccccc1)C(=O)N(C)[C@H](C(=O)N[C@@H](CCC(N)=O)C(=O)N[C@@H](C)C(=O)O)[C@@H](C)O` (H-SLSTFFRLFNRSF[NMeT]QA-OH), the Activity [1] is reported as 38% and the inhibition [2] is reported as “inactive”.
For `CC(C)C[C@H](NC(=O)[C@H](CCCNC(=N)N)NC(=O)[C@H](Cc1ccccc1)NC(=O)[C@H](Cc1ccccc1)NC(=O)[C@@H](NC(=O)[C@H](CO)NC(=O)[C@H](CC(C)C)NC(=O)[C@@H](N)CO)[C@@H](C)O)C(=O)N[C@@H](Cc1ccccc1)C(=O)N[C@@H](CC(N)=O)C(=O)N[C@@H](CCCNC(=N)N)C(=O)N[C@@H](CO)C(=O)N(C)[C@@H](Cc1ccccc1)C(=O)N[C@H](C(=O)N[C@@H](CCC(N)=O)C(=O)N[C@@H](C)C(=O)O)[C@@H](C)O` (H-SLSTFFRLFNRS[NMeF]TQA-OH), the Activity [1] was 17% and the inhibition [2] was “inactive”.
In the case of `CC(C)C[C@H](NC(=O)[C@H](CCCNC(=N)N)NC(=O)[C@H](Cc1ccccc1)NC(=O)[C@H](Cc1ccccc1)NC(=O)[C@@H](NC(=O)[C@H](CO)NC(=O)[C@H](CC(C)C)NC(=O)[C@@H](N)CO)[C@@H](C)O)C(=O)N[C@@H](Cc1ccccc1)C(=O)N[C@@H](CC(N)=O)C(=O)N[C@@H](CCCNC(=N)N)C(=O)N(C)[C@@H](CO)C(=O)N[C@@H](Cc1ccccc1)C(=O)N[C@H](C(=O)N[C@@H](CCC(N)=O)C(=O)N[C@@H](C)C(=O)O)[C@@H](C)O` (H-SLSTFFRLFNR[NMeS]FTQA-OH), the Activity [1] is reported as 12% and the inhibition [2] is reported as “inactive”.
In the case of `CC(C)C[C@H](NC(=O)[C@H](CCCNC(=N)N)NC(=O)[C@H](Cc1ccccc1)NC(=O)[C@H](Cc1ccccc1)NC(=O)[C@@H](NC(=O)[C@H](CO)NC(=O)[C@H](CC(C)C)NC(=O)[C@@H](N)CO)[C@@H](C)O)C(=O)N[C@@H](Cc1ccccc1)C(=O)N[C@@H](CC(N)=O)C(=O)N(C)[C@@H](CCCNC(=N)N)C(=O)N[C@@H](CO)C(=O)N[C@@H](Cc1ccccc1)C(=O)N[C@H](C(=O)N[C@@H](CCC(N)=O)C(=O)N[C@@H](C)C(=O)O)[C@@H](C)O` (H-SLSTFFRLFN[NMeR]SFTQA-OH), the inhibition [3] is reported as “Active”, the Activity [1] is reported as 5% and the inhibition [2] is reported as “inactive”.
In the case of `CC(C)C[C@H](NC(=O)[C@H](CCCNC(=N)N)NC(=O)[C@H](Cc1ccccc1)NC(=O)[C@H](Cc1ccccc1)NC(=O)[C@@H](NC(=O)[C@H](CO)NC(=O)[C@H](CC(C)C)NC(=O)[C@@H](N)CO)[C@@H](C)O)C(=O)N[C@@H](Cc1ccccc1)C(=O)N(C)[C@@H](CC(N)=O)C(=O)N[C@@H](CCCNC(=N)N)C(=O)N[C@@H](CO)C(=O)N[C@@H](Cc1ccccc1)C(=O)N[C@H](C(=O)N[C@@H](CCC(N)=O)C(=O)N[C@@H](C)C(=O)O)[C@@H](C)O` (H-SLSTFFRLF[NMeN]RSFTQA-OH), the Activity [1] is reported as 11% and the inhibition [2] is reported as “inactive”.
In the case of `CC(C)C[C@H](NC(=O)[C@@H](N)CO)C(=O)N[C@@H](CO)C(=O)N[C@H](C(=O)N[C@@H](Cc1ccccc1)C(=O)N[C@@H](Cc1ccccc1)C(=O)N[C@@H](CCCNC(=N)N)C(=O)N[C@@H](CC(C)C)C(=O)N(C)[C@@H](Cc1ccccc1)C(=O)N[C@@H](CC(N)=O)C(=O)N[C@@H](CCCNC(=N)N)C(=O)N[C@@H](CO)C(=O)N[C@@H](Cc1ccccc1)C(=O)N[C@H](C(=O)N[C@@H](CCC(N)=O)C(=O)N[C@@H](C)C(=O)O)[C@@H](C)O)[C@@H](C)O` (H-SLSTFFRL[NMeF]NRSFTQA-OH), the inhibition [3] is reported as “Active”, the Activity [1] is reported as 0% and the inhibition [2] is reported as “inactive”.
In the case of `CC(C)C[C@H](NC(=O)[C@@H](N)CO)C(=O)N[C@@H](CO)C(=O)N[C@H](C(=O)N[C@@H](Cc1ccccc1)C(=O)N[C@@H](Cc1ccccc1)C(=O)N[C@@H](CCCNC(=N)N)C(=O)N(C)[C@@H](CC(C)C)C(=O)N[C@@H](Cc1ccccc1)C(=O)N[C@@H](CC(N)=O)C(=O)N[C@@H](CCCNC(=N)N)C(=O)N[C@@H](CO)C(=O)N[C@@H](Cc1ccccc1)C(=O)N[C@H](C(=O)N[C@@H](CCC(N)=O)C(=O)N[C@@H](C)C(=O)O)[C@@H](C)O)[C@@H](C)O` (H-SLSTFFR[NMeL]FNRSFTQA-OH), the Activity [1] is reported as 29% and the inhibition [2] is reported as “inactive”.
For `CC(C)C[C@H](NC(=O)[C@@H](N)CO)C(=O)N[C@@H](CO)C(=O)N[C@H](C(=O)N[C@@H](Cc1ccccc1)C(=O)N[C@@H](Cc1ccccc1)C(=O)N(C)[C@@H](CCCNC(=N)N)C(=O)N[C@@H](CC(C)C)C(=O)N[C@@H](Cc1ccccc1)C(=O)N[C@@H](CC(N)=O)C(=O)N[C@@H](CCCNC(=N)N)C(=O)N[C@@H](CO)C(=O)N[C@@H](Cc1ccccc1)C(=O)N[C@H](C(=O)N[C@@H](CCC(N)=O)C(=O)N[C@@H](C)C(=O)O)[C@@H](C)O)[C@@H](C)O` (H-SLSTFF[NMeR]LFNRSFTQA-OH), the Activity [1] was 45% and the inhibition [2] was “inactive”.
In the case of `CC(C)C[C@H](NC(=O)[C@H](CCCNC(=N)N)NC(=O)[C@H](Cc1ccccc1)NC(=O)[C@H](Cc1ccccc1)NC(=O)[C@H]([C@@H](C)O)N(C)C(=O)[C@H](CO)NC(=O)[C@H](CC(C)C)NC(=O)[C@@H](N)CO)C(=O)N[C@@H](Cc1ccccc1)C(=O)N[C@@H](CC(N)=O)C(=O)N[C@@H](CCCNC(=N)N)C(=O)N[C@@H](CO)C(=O)N[C@@H](Cc1ccccc1)C(=O)N[C@H](C(=O)N[C@@H](CCC(N)=O)C(=O)N[C@@H](C)C(=O)O)[C@@H](C)O` (H-SLS[NMeT]FFRLFNRSFTQA-OH), the EC50 [4] is reported as over 1000 nM.
With H-GSLSAFFRAFNAAFTAA-OH the inhibition [3] was “Active” and the inhibition [5] was “Active”.
In the case of H-GSLSAFFRAFNAAFTQA-OH, the inhibition [3] is reported as “Active” and the inhibition [5] is reported as “Active”.
Work on H-GSLSTFFRLFNRSFTQA-OH yielded an EC50 [4] of 4.8 nM.
In the case of H-SGSLSTFFRLFNRSFTQA-OH, the EC50 [4] is reported as 6.2 nM, the inhibition [6] is reported as “inactive” and the Activity [1] is reported as 100%.
In the case of H-SLSTFFRLFNRSFTQA-OH, the EC50 [4] is reported as 7.9 nM and the Activity [1] is reported as 100%.
